One may read the IC50 as the concentration needed to halve the response being measured. Higher therefore signals weaker potency. Broadly, the EC50 is the concentration needed to bring the measured effect to its halfway point.

Among the data in paper PMC9517990 (Communications Biology, 2022) are IC50 and EC50 values, retold here.

Each structure is given as a SMILES string.

The target of assay [1] is neuraminidase of A/South Korea/90207/2020 WT virus (NA-H275, PA-I38) (Influenza A virus (A(H1N1)pdm09), UniProt A0A0X9QTS2). It is filed as biochemical.
Assay [2] relates to A/South Korea/90207/2020 WT virus (NA-H275, PA-I38). Put plainly: microbe, parasite or virus in culture. It is filed as cell-based, influenza A(H1N1)pdm09 virus. Conditions: Influenza A virus, MDCK, 24 h, read-out: EC50 nM ± SD (column headed IC50; footnote: EC50).

`CCC(CC)[C@H](NC(C)=O)[C@@H]1[C@H](O)[C@@H](C(=O)O)C[C@H]1N=C(N)N` [Peramivir, peramivir] gave an IC50 in assay [1] of 0.16 nM.

Take `O=C1c2c(O)c(=O)ccn2N([C@@H]2c3ccccc3SCc3c2ccc(F)c3F)[C@@H]2COCCN12` [Baloxavir, Baloxavir acid]: the concentration giving a half-maximal response (EC50) in assay [2] amounted to 1 ± 0.2 nM.
